According to patent US5945436A, “Pyridylmethyl nitriles, amides and thioamides useful as fungicides” (Uniroyal Chemical Company, Inc., priority 1997, dated 1999):

Legend:
[1] = test system: Erysiphe graminis; assay: Powdery mildew of barley, systemic root uptake (BMS); format: in vivo; settings: 45 ml of 250 mg/l, 8 days after inoculation
Method in brief: (§1)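 Pot soil of barley (BMS) and cucumber (CMS) plants was drenched with 45 ml of a 250 mg/l acetone/Tween 20 aqueous emulsion, with untreated plants as controls. Disease was scored on a rating scale that included intermediate grades.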

[2] = test system: Pyricularia oryzae; assay: whole plant or invertebrate; format: in vivo; settings: for Percent Reduction of Disease, PYR ORY: barley, foliar, 1,000 mg/l; for pest or weed control at 1000 µg/mL: Pyricularia oryzae, in Hordeum vulgare, foliar, 216 h, read-out: Percent Reduction of Disease, PYR ORY, barley, foliar, 1,000 mg/l
[3] = test system: Cercosporidium personatum; assay: Fungal germination and growth, treated disc on agar, scored (CER PER); format: cell-based; set-up: key: 100: Complete inhibition of germination and growth.; 80: Nearly complete inhibition but some growth.; 50: Partial inhibition of growth or, early complete inhibition but later growth begins.; 20: Some inhibition of growth, but not significant.; 0: No inhibition of growth; settings: disc dipped in 500 mg/l, 29° C., numerical score 0-100, spore suspension
Method in brief: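 Acetone test solutions dried on 11 mm filter paper discs, placed on agar; two drops of C. personatum spore suspension (20,000 spores/ml) applied per disc. Plates incubated at 29° C; germination and growth scored 0 (no inhibition) to 100 (complete inhibition), untreated discs as controls.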

[4] = test system: Erysiphe cichoracearum; assay: Powdery mildew of cucumber, systemic root uptake (CMS); format: in vivo; settings: 45 ml of 250 mg/l, 8 days after inoculation
Method in brief: as §1

[5] = test system: Septoria nodorum; assay: Fungal growth inhibition, treated disc on agar (SEP NOD); format: cell-based; settings: disc dipped in 500 mg/l, 29° C.; for inhibition at 500 µg/mL: Parastagonospora nodorum, read-out: Percent Growth Inhibition, SEP NOD
[6] = test system: Helminthosporium sativum; assay: Barley spot blotch, foliar treatment (HEL SAT); format: in vivo; settings: foliar, 1,000 mg/l; for pest or weed control at 1000 µg/mL: Helminthosporium, foliar, 216 h, read-out: Percent Reduction of Disease, HEL SAT
Method in brief: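 Six-day-old "Robust" barley, 10 plants per pot, sprayed at 1,000 mg/l (acetone solution emulsified in water with TWEEN 20) or left unsprayed as controls. All plants then inoculated with H. sativum spores, held 24 h at 99% humidity, then 8 days in greenhouse at 21° C. Percent control computed.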

[7] = test system: Erysiphe graminis; assay: Powdery mildew in barley, foliar application (ERY GRA); format: in vivo; settings: foliar, 1,000 mg/l, 8 days after inoculation; for pest or weed control at 1000 µg/mL: Blumeria graminis, foliar, 192 h, read-out: Percent Reduction of Disease, ERY GRA
Method in brief: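 'Robust' barley plants sprayed with acetone/TWEEN 20 aqueous emulsion at 1,000 mg/l, dried, then kept at 21° C in a greenhouse. Inoculated by distributing Erysiphe graminis spores from infected plants. Percent control computed from disease scores vs unsprayed control pots.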

[8] = test system: Fusarium oxysporum; assay: Fungal growth inhibition, treated disc on agar (FUS OXY); format: cell-based; settings: disc dipped in 500 mg/l, 29° C.; for inhibition at 500 µg/mL: Fusarium oxysporum, read-out: Percent Growth Inhibition, FUS OXY
[9] = test system: Rhizoctonia solani; assay: Fungal growth inhibition, treated disc on agar (RHI SOL); format: cell-based; settings: disc dipped in 500 mg/l, 29° C.; for inhibition at 500 µg/mL: Rhizoctonia solani, read-out: Percent Growth Inhibition, RHI SOL

Structure (SMILES) | Percent Reduction of Disease, BMS [1] | Percent Reduction of Disease, PYR ORY [2] | CER PER inhibition score [3] | Percent Reduction of Disease, CMS [4] | Percent Growth Inhibition, SEP NOD [5] | pest or weed control at 1000 µg/mL [6] | pest or weed control at 1000 µg/mL [7] | inhibition at 500 µg/mL [8] | Percent Growth Inhibition, RHI SOL [9] | pest or weed control at 1000 µg/mL [2] | inhibition at 500 µg/mL [5] | inhibition at 500 µg/mL [9] | Percent Reduction of Disease, HEL SAT [6] | Percent Reduction of Disease, ERY GRA [7] | Percent Growth Inhibition, FUS OXY [8]
CC(C)CCC(C#N)(CCc1ccc(F)cc1)c1cccnc1 (stereo not drawn) [Compound 49] | 0% | 17% | 0 | 0% | 100% | 100% | 100% | 65% | 100% | – | – | – | – | – | –
COCC(C#N)(CCc1ccc(OC)cc1)c1cccnc1 (stereo not drawn) [Compound 50] | 0% | – | 0 | 0% | – | 100% | 80% | 100% | – | 0% | 100% | 20% | – | – | –
COCC(C#N)(CCc1ccc(F)cc1)c1cccnc1 (stereo not drawn) [Compound 51] | 90% | – | 100 | 0% | – | 90% | 91% | 100% | – | 20% | 100% | 30% | – | – | –
N#CC(CCc1ccc(F)cc1)(CC(F)(F)F)c1cccnc1 (stereo not drawn) [Compound 52] | 100% | – | 100 | 85% | – | 100% | 100% | 100% | – | 90% | 100% | 100% | – | – | –
N#CC(CCF)(CCc1ccc(F)cc1)c1cccnc1 (stereo not drawn) [Compound 53] | 100% | – | 0 | 0% | – | 90% | 100% | 100% | – | 70% | 100% | 75% | – | – | –
CCCCOc1ccc(CCC(C#N)(CCCC)c2cccnc2)cc1 (stereo not drawn) [Compound 54] | 0% | – | 0 | 0% | – | 100% | 100% | 100% | – | 90% | 100% | 100% | – | – | –
CC(C)CCC(C#N)(CCc1ccc(F)cc1)c1cccnc1 (stereo not drawn) [Compound 55] | 75% | 70% | 0 | 0% | 10% | – | – | – | 50% | – | – | – | 90% | 100% | 65%
C=CCC(C#N)(CCc1ccc(OCCCC)cc1)c1cccnc1 (stereo not drawn) [Compound 56] | 0% | – | 0 | 0% | – | 100% | 90% | 60% | – | 90% | 40% | 45% | – | – | –
CCCCOc1ccc(CCC(C#N)(CCC)c2cccnc2)cc1 (stereo not drawn) [Compound 57] | 0% | – | 0 | 0% | – | 100% | 90% | 55% | – | 100% | 40% | 40% | – | – | –
CCCCOc1ccc(CCC(C#N)(CC(C)C)c2cccnc2)cc1 (stereo not drawn) [Compound 58] | 0% | – | 0 | 0% | – | 0% | 90% | 40% | – | 85% | 70% | 5% | – | – | –
CC=CCC(C#N)(CCc1ccc(F)cc1)c1cccnc1 (stereo not drawn) [Compound 59] | 75% | – | 0 | 0% | – | 90% | 100% | 100% | – | 85% | 100% | 5% | – | – | –
CCCCCC(C#N)(CCc1ccc(F)cc1)c1cccnc1 (stereo not drawn) [Compound 60] | 75% | – | 0 | 0% | – | 90% | 100% | 20% | – | 70% | 100% | 100% | – | – | –
C#CCC(CCc1ccccc1)(C(N)=S)c1cccnc1 (stereo not drawn) [Compound 61, α-(2-phenylethyl)-α-(2-propynyl)-3-pyridinethanethioamide] | 20% | – | 100 | 40% | – | 85% | 100% | 100% | – | 50% | 20% | 80% | – | – | –
CCCCCC(CCc1ccc(F)cc1)(C(N)=O)c1cccnc1 (stereo not drawn) [Compound 62] | 20% | – | 0 | 20% | – | 0% | 0% | 10% | – | 0% | 0% | 5% | – | – | –
CCCCC(C#N)(CCCc1ccccc1OC)c1cccnc1 (stereo not drawn) [Compound 63] | 0% | – | 0 | 0% | – | 0% | 0% | 20% | – | 0% | 100% | 5% | – | – | –
